# Data from PubChem BioAssay AID504936 (NMMLSC, 2011).
# Active and inactive are the calls of the source.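 How the source made its calls: active means cytostatic effect above 60% on a scale from DMSO controls to rapamycin controls, holding yeast in G1/G0 phase; inactive means the rest.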
# Test system: S. cerevisiae BY4741 DNA content flow cytometry, cell cycle
# Experiment: S. cerevisiae cell cycle DNA content profile – flow cytometry (AID 504936);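 further: yeast exposed to compound for three five or seven days before fixation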
# Settings: at 10 µM; for G1/G0 population: stronger effect = higher value; for G2 population: measured here: G2 phase fraction, stronger effect = lower value; for apoptotic population: measured here: apoptotic fraction
SMILES,G1/G0 population,G2 population,apoptotic population
[O-][n+]1c2ccccc2[n+]([O-])c2cc(O)ccc21,48.4% (inactive),8.17%,37.1%
COc1ccc2nc3ccccc3nc2c1,65.9% (inactive),12.7%,18.8%
Cn1c(O)c(C(=Nc2ccc(F)cc2)c2ccccc2Cl)c(=O)n(C)c1=O,72% (inactive),14.8%,11.1%
CC(C)(C)n1nc(-c2ccc(Cl)cc2)c2c(N)ncnc21,70.8% (inactive),0.23%,12.6%
c1ccc2[nH]c3cc4ncnc4cc3nc2c1,58.6% (inactive),8.26%,30.4%
CCc1nc(NC(C)(C)C)c2cnn(-c3ccccc3)c2n1,75.3% (inactive),13.1%,9.99%
COc1ccc2cc(C3CC(c4ccco4)=NN3S(=O)(=O)c3ccccc3)c(Cl)nc2c1 (stereo not given),79% (inactive),12.7%,6.88%
Cc1ccc(-c2nn(C(C)(C)C)c3ncnc(N)c23)cc1,70.3% (inactive),9.27%,16.3%
O=C(Nc1cccc(Cl)c1)Nc1ccc2nccnc2c1,77.4% (inactive),12%,8.93%
N#CCc1nn(-c2ccccc2)c2ncnc(N)c12,78.8% (inactive),10.6%,8.22%
C[n+]1c2ccccc2nc2ccc(NCCO)cc21,77.6% (inactive),7.26%,8.98%
CC(C)OC(=O)c1ccc2nc3ccccc3nc2c1,78.1% (inactive),12.4%,7.62%
COc1ccc2nc3ccccc3nc2c1N,56.9% (inactive),10.2%,29.3%
CN(C)CCNc1ncnc2c1cnn2-c1ccc(Cl)cc1,52.4% (inactive),10.3%,35.5%
Oc1cccc2nc3ccccc3nc12,43% (inactive),9.27%,44%
CCn1c2ccccc2c2n[nH]c(=S)nc21,80% (inactive),11.1%,6.8%
O=C1c2c(O)ccc(O)c2C(=O)c2c(NCCNCCO)ccc(NCCNCCO)c21,0.072% (inactive),0%,99.9%
CCCCCNC(=O)C(=O)C1C(=O)Nc2ccccc21 (stereo not given),71.4% (inactive),6.62%,20%
CC(C)OC(=O)CSc1nnc(-c2ccc(Cl)cc2Cl)o1,79.6% (inactive),12.9%,6.08%
C=CCOn1c(=O)c(-c2cccs2)[n+]([O-])c2ccccc21,73.2% (inactive),13.9%,11.3%
CC(=O)Nc1ccc2nc3ccccc3nc2c1,72.9% (inactive),11.9%,12.6%
C=CCSc1ccc(-c2ccc([N+](=O)[O-])cc2)o1,65.8% (inactive),10.1%,21.7%
C[C@@]12C(=O)OC(=O)[C@]1(C)C1CCC2O1,61.6% (inactive),9.56%,24.9%
CCN(CC)C(=O)c1cccc2nc3ccccc3nc12,42.7% (inactive),8.88%,46.6%
CCN(CC)C(=O)c1ccc2nc3ccccc3nc2c1,78.8% (inactive),11.3%,8.05%
O=C(O)c1cnc2ccccc2n1,78.8% (inactive),12.5%,7.02%
COc1cccc2nc3cc(C)c(C)cc3nc12,64.8% (inactive),11%,21.7%
c1ccc2nc3ccccc3nc2c1,71.8% (inactive),13.2%,12.3%

SMILES,G1/G0 population,G2 population,apoptotic population
CC(C)(C)Nc1ncnc2c1cnn2-c1ccccc1,62.9% (inactive),10.3%,25%
O=c1[nH]c(O)c(C=Nc2ccc(F)c(Cl)c2)c(=O)[nH]1,78.7% (inactive),12.7%,7.01%
CC(C)(C)n1nc(-c2ccc(F)cc2)c2c(N)ncnc21,70.5% (inactive),3.33%,14.9%
COc1ccc2nc3ccccc3nc2c1NC(=O)c1ccccc1Cl,79.9% (inactive),12.2%,6.11%
O=C(/C=C/c1cccs1)NC(=S)NNC(=O)Cc1cccs1,73% (inactive),11.1%,14%
O=C(Nc1ccc2nc3ccccc3nc2c1)c1ccc(Br)cc1,77.7% (inactive),12.5%,8.37%
CNc1ccc2nc3ccccc3[n+](C)c2c1,52.8% (inactive),8.35%,36.6%
O=C(OCc1c(F)cccc1Cl)c1cnc2ccccc2n1,73.8% (inactive),13.8%,10.5%
CCC(=Nc1ccccc1O)C1=C(O)CC(c2ccccc2)CC1=O (stereo not given),74.7% (inactive),12.1%,12%
COc1ccc2c(c1)c1nnc(SC)nc1n2C,58.9% (inactive),11.7%,27.7%
C#CCSc1ccc(-c2ccc([N+](=O)[O-])cc2)o1,79.6% (inactive),11%,8.02%
CCN(CC)C(=O)CSc1nnc(-c2cccc(OC)c2)o1,70.5% (inactive),12.1%,15.5%
O=C(/C=C/c1ccccc1)NC(=S)NNC(=O)Cc1cccs1,80.1%,3.91%,12.7%
Cc1cc2nc3ccc(N(C)C)cc3nc2cc1N,67.3% (inactive),5.62%,20.3%
Nc1cc2nc3ccccc3nc2cc1N,79% (inactive),9.84%,9%
CC(C)CSc1nnc2c3ccccc3n(C)c2n1,75% (inactive),12%,11.2%
Cn1c(=O)[nH]c2nncnc2c1=O,73.1% (inactive),12%,12.7%
OCC[n+]1c2ccccc2nc2ccc(N3CCOCC3)cc21,74.9% (inactive),12.4%,11%
Cc1cc(C)c2[nH]c3nc(SCC(=O)O)nnc3c2c1,79.8% (inactive),10.9%,7.85%
N#CC(c1nc2ccccc2nc1N1CCCC1)S(=O)(=O)c1ccccc1 (stereo not given),75.8% (inactive),11.9%,9.82%
O=C(CN1CCN(c2ccccn2)CC1)Nc1ccccc1F,74% (inactive),12.1%,12%
O=C(c1cccc2nc3ccccc3nc12)N1CCOCC1,76.5% (inactive),12.1%,9.75%
Cc1cc(C)cc(NC(=O)CN2CCN(c3ccccn3)CC2)c1,73.5% (inactive),12.4%,12.2%
FC(F)(F)c1nc2cc3nc4ccccc4[nH]c3cc2n1,71.5% (inactive),10.6%,12.3%
COc1ccc2nc3ccccc3[n+]([O-])c2c1,69.4% (inactive),13.5%,15%
CSc1nnc(-c2ccc([N+](=O)[O-])cc2)o1,79.2% (inactive),10.8%,8.39%
Cc1ccccc1NC(=O)c1cccc2nc3ccccc3nc12,72.9% (inactive),12.2%,13.2%
